What was measured:
Type in all cases: in vivo
Stellaria media [1] = test: Pre-emergence herbicidal effect against STEME; details: 1280 g/ha, visual score after 3 weeks, 100% = plants have died, 0% = like control plants
Procedure, shortened: (§1)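 Pre-emergence soil-surface spray, WP/EC formulations in water at 600 to 800 L/ha plus 0.2% wetting agent, sandy loam, greenhouse, visual % damage vs untreated at 3 weeks (100% = plants dead, 0% = like control).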

Abutylon threophrasti [2] = test: Pre-emergence herbicidal effect against ABUTH; details: 1280 g/ha, visual score after 3 weeks, 100% = plants have died, 0% = like control plants
Source text: (§2) 1. Pre-emergence herbicidal effect and crop plant compatibility Seeds of monocotyledonous and dicotyledonous weed plants and crop plants are laid out in sandy loam soil in wood-fibre pots and covered with soil. The compounds of the invention, formulated in the form of wettable powders (WP) or as emulsion concentrates (EC), are then applied to the surface of the covering soil as aqueous suspension or emulsion at a water application rate equating to 600 to 800 L/ha with addition of 0.2% wetting agent. After the treatment, the pots are placed in a greenhouse and kept under good growth conditions for the trial plants. The damage to the test plants is scored visually after a test period of 3 weeks by comparison with untreated controls (herbicidal activity in percent (%): 100% activity=the plants have died, 0% activity=like control plants). [table]

Bassia scoparia [3] = test: Post-emergence herbicidal effect against KCHSC; details: 1280 g/ha, visual assessment about 3 weeks after treatment, 100% = plants have died, 0% = like control plants
Procedure, shortened: (§3)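 Visual score, % action vs untreated controls (100% = plants dead, 0% = like controls), read ~3 wk after spraying. Greenhouse plants in sandy loam, one-leaf stage, 2–3 wk post-sowing. WP/EC as aqueous spray, 600–800 l/ha, 0.2% wetting agent.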

Alopecurus myosuroides [4] = test: Post-emergence herbicidal effect against ALOMY; details: 1280 g/ha, visual score after about 3 weeks, 100% = plants have died, 0% = like control plants
Procedure, shortened: as §3

[5] = tested on: Tripleurospermum inodorum; test: Post-emergence herbicidal effect against MATIN; details: 1280 g/ha, visual assessment about 3 weeks after treatment, 100% = plants have died, 0% = like control plants
Procedure, shortened: as §3

Digitaria sanguinalis [6] = test: Post-emergence herbicidal effect against DIGSA; details: 1280 g/ha, visual score after about 3 weeks, 100% = plants have died, 0% = like control plants
Procedure, shortened: as §3

Poa annua [7] = test: Post-emergence herbicidal effect against POAAN; details: 1280 g/ha, visual assessment about 3 weeks after treatment, 100% = plants have died, 0% = like control plants
Procedure, shortened: as §3

Lolium rigidum [8] = test: Pre-emergence herbicidal effect against LOLRI; details: 1280 g/ha, visual score after 3 weeks, 100% = plants have died, 0% = like control plants
Procedure, shortened: as §1

Lolium rigidum [9] = test: Post-emergence herbicidal effect against LOLRI; details: 1280 g/ha, visual score after about 3 weeks, 100% = plants have died, 0% = like control plants
Description: [table] 2. Post-emergence herbicidal effect and crop plant compatibility Seeds of monocotyledonous and dicotyledonous weed and crop plants are laid out in sandy loam soil in wood-fibre pots, covered with soil and cultivated in a greenhouse under good growth conditions. 2 to 3 weeks after sowing, the test plants are treated at the one-leaf stage. The compounds of the invention, formulated in the form of wettable powders (WP) or as emulsion concentrates (EC), are then sprayed onto the green parts of the plants as aqueous suspension or emulsion at a water application rate equating to 600 to 800 l/ha with addition of 0.2% wetting agent. After the test plants have been left to stand in the greenhouse under optimal growth conditions for about 3 weeks, the action of the preparations is assessed visually in comparison to untreated controls (herbicidal action in percent (%): 100% activity=the plants have died, 0% activity=like control plants).

Veronica persica [10] = test: Post-emergence herbicidal effect against VERPE; details: 1280 g/ha, visual assessment about 3 weeks after treatment, 100% = plants have died, 0% = like control plants
Procedure, shortened: as §3

Digitaria sanguinalis [11] = test: Pre-emergence herbicidal effect against DIGSA; details: 1280 g/ha, visual score after 3 weeks, 100% = plants have died, 0% = like control plants
Procedure, shortened: as §1

Stellaria media [12] = test: Post-emergence herbicidal effect against STEME; details: 1280 g/ha, visual assessment about 3 weeks after treatment, 100% = plants have died, 0% = like control plants
Procedure, shortened: as §3

Alopecurus myosuroides [13] = test: Pre-emergence herbicidal effect against ALOMY; details: 1280 g/ha, visual score after 3 weeks, 100% = plants have died, 0% = like control plants
Procedure, shortened: as §1

Abutylon threophrasti [14] = test: Post-emergence herbicidal effect against ABUTH; details: 1280 g/ha, visual assessment about 3 weeks after treatment, 100% = plants have died, 0% = like control plants
Procedure, shortened: as §3

Echinochloa crus-galli [15] = test: Post-emergence herbicidal effect against ECHCG; details: 1280 g/ha, visual score after about 3 weeks, 100% = plants have died, 0% = like control plants
Procedure, shortened: as §3

Poa annua [16] = test: Pre-emergence herbicidal effect against POAAN; details: 1280 g/ha, visual score after 3 weeks, 100% = plants have died, 0% = like control plants
Procedure, shortened: as §1

Echinochloa crus-galli [17] = test: Pre-emergence herbicidal effect against ECHCG; details: 1280 g/ha, visual score after 3 weeks, 100% = plants have died, 0% = like control plants
Procedure, shortened: as §1

Bassia scoparia [18] = test: Pre-emergence herbicidal effect against KCHSC; details: 1280 g/ha, visual score after 3 weeks, 100% = plants have died, 0% = like control plants
Source text: as §2

Veronica persica [19] = test: Pre-emergence herbicidal effect against VERPE; details: 1280 g/ha, visual score after 3 weeks, 100% = plants have died, 0% = like control plants
Procedure, shortened: as §1

[20] = tested on: Tripleurospermum inodorum; test: Pre-emergence herbicidal effect against MATIN; details: 1280 g/ha, visual score after 3 weeks, 100% = plants have died, 0% = like control plants
Procedure, shortened: as §1

Setaria viridis [21] = test: Pre-emergence herbicidal effect against SETVI; details: 1280 g/ha, visual score after 3 weeks, 100% = plants have died, 0% = like control plants
Procedure, shortened: as §1

Setaria viridis [22] = test: Post-emergence herbicidal effect against SETVI; details: 1280 g/ha, visual assessment about 3 weeks after treatment, 100% = plants have died, 0% = like control plants
Procedure, shortened: as §3

Amaranthus retroflexus [23] = test: Pre-emergence herbicidal effect against AMARE; details: 1280 g/ha, visual score after 3 weeks, 100% = plants have died, 0% = like control plants
Procedure, shortened: as §1

Amaranthus retroflexus [24] = test: Post-emergence herbicidal effect against AMARE; details: 1280 g/ha, visual assessment about 3 weeks after treatment, 100% = plants have died, 0% = like control plants
Procedure, shortened: as §3

| SMILES | Pre-emergence action against STEME (Stellaria media [1]) | Pre-emergence action against ABUTH (Abutylon threophrasti [2]) | Post-emergence action against KCHSC (Bassia scoparia [3]) | Post-emergence action against ALOMY (Alopecurus myosuroides [4]) | Post-emergence action against MATIN [5] | Post-emergence action against DIGSA (Digitaria sanguinalis [6]) | Post-emergence action against POAAN (Poa annua [7]) | Pre-emergence action against LOLRI (Lolium rigidum [8]) | Post-emergence action against VERPE (Veronica persica [10]) | Pre-emergence action against DIGSA (Digitaria sanguinalis [11]) | Pre-emergence action against ALOMY (Alopecurus myosuroides [13]) | Post-emergence action against ABUTH (Abutylon threophrasti [14]) | Post-emergence action against ECHCG (Echinochloa crus-galli [15]) | Pre-emergence action against POAAN (Poa annua [16]) | Pre-emergence action against ECHCG (Echinochloa crus-galli [17]) | Pre-emergence action against KCHSC (Bassia scoparia [18]) | Pre-emergence action against VERPE (Veronica persica [19]) | Pre-emergence action against MATIN [20] | Pre-emergence action against SETVI (Setaria viridis [21]) | Post-emergence action against SETVI (Setaria viridis [22]) | other results |
| --- | --- | --- | --- | --- | --- | --- | --- | --- | --- | --- | --- | --- | --- | --- | --- | --- | --- | --- | --- | --- | --- |
| O=C(O)CSc1nn(-c2ccccc2F)c(-c2ccc(F)c(F)c2)c1Cl [Example I-014] | 100% | 100% | 100% | 100% | 100% | 100% | 100% | 100% | 90% | 100% | 100% | 90% | 90% | 100% | 90% | 90% | 100% | 100% | 100% | 90% | Post-emergence action against LOLRI (Lolium rigidum [9]): 90%; Post-emergence action against STEME (Stellaria media [12]): 100% |
| O=C(O)CSc1nn(-c2ccccc2F)c(-c2cncc(F)c2)c1Br [II-005] | 100% | 90% | 90% | 100% | 100% | 100% | 100% | 100% | 100% | 100% | 100% | 90% | 100% | 100% | 100% | 90% | 100% | 100% | 100% | 100% | Post-emergence action against LOLRI (Lolium rigidum [9]): 90%; Pre-emergence action against AMARE (Amaranthus retroflexus [23]): 100%; Post-emergence action against STEME (Stellaria media [12]): 100%; Post-emergence action against AMARE (Amaranthus retroflexus [24]): 90% |
| CCOC(=O)CSc1nn(-c2ccccc2F)c(-c2cncc(Cl)c2)c1Br [II-007] | 100% | 90% | – | 100% | 100% | 100% | 100% | 100% | 100% | 100% | 100% | 90% | 100% | 100% | 100% | 100% | 100% | 100% | 100% | 90% | Pre-emergence action against AMARE (Amaranthus retroflexus [23]): 100%; Post-emergence action against STEME (Stellaria media [12]): 100%; Post-emergence action against AMARE (Amaranthus retroflexus [24]): 100% |
| CCOC(=O)C[S+]([O-])c1nn(-c2ccccc2F)c(-c2cncc(F)c2)c1Br (stereo not shown) [II-011] | 100% | 90% | 100% | 100% | 90% | 100% | 100% | 100% | 90% | 100% | 100% | 90% | 100% | 100% | 100% | 100% | 100% | 100% | 100% | 100% | Pre-emergence action against AMARE (Amaranthus retroflexus [23]): 100%; Post-emergence action against STEME (Stellaria media [12]): 100%; Post-emergence action against AMARE (Amaranthus retroflexus [24]): 90% |
| COC(=O)CCNC(=O)CSc1nn(-c2ccccc2F)c(-c2cncc(F)c2)c1Br [VII-010] | 90% | – | 90% | 90% | 90% | – | 100% | 100% | 90% | – | 90% | 90% | 90% | 100% | 90% | 90% | 100% | 100% | 100% | 90% | Post-emergence action against LOLRI (Lolium rigidum [9]): 90% |

— patent US20230126893A1, “[(1,4,5-TRISUBSTITUTED-1H-PYRAZOL-3-YL)SULFANYL]ACETIC ACID DERIVATIVES, SALTS THEREOF, AND USE THEREOF AS ACTIVE HERBICIDAL INGREDIENTS” (BAYER AKTIENGESELLSCHAFT, priority 2020, published 2023)
